Where a chain is given by its changes, count along the chain named. Where two headings read alike, the source gives them in different places. Residues, ends and D or L forms follow the SMILES beside them. No end group written: not given here.
What was measured:
Format in all cases: binding
BAZ2A PHD = biological target: T1, BAZ2A PHD (Homo sapiens, UniProt Q9UIF9); experiment: ITC, H3 peptides titrated into BAZ2A PHD (WT); details: for effect on binding, in words: compared with H3 10-mer WT or the peptide named in the words
T1 construct: The small PHDs (∼6.5 kDa) of both BAZ2A and BAZ2B; made in house
T1 sequence (Q9UIF9 1676-1726 limits assumed): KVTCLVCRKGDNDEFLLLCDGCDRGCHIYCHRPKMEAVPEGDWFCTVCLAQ
Procedure: (§1) All calorimetric experiments were performed on a MicroCal iTC200 microcalorimeter (GE Healthcare) at 25°C in a buffer containing 20 mM HEPES at a pH of 8, 150 mM NaCl and 0.5 mM Tris(2-carboxyethyl) phosphine. All ITC experiments were carried out titrating peptide solutions (1.5–3 mM) into protein solutions (80–120 µM) loaded in the calorimeter cell, performing one first injection of 0.4 µl followed by 19 injections of 2 µl. The data were analyzed using the MicroCal™ software package subtracting the data from an independent titration of peptide into buffer to account for heat of dilution, and then fitted using a single-binding site model. Protein concentration was determined by measuring absorbance at 280 nm using the following extinction coefficients: BAZ2A PHD ε280 = 6990 M^−1 cm^−1 and BAZ2B PHD ε280 = 8480 M^−1 cm^−1. Lyophilized peptides were weighted and dissolved in an appropriate volume of buffer to obtain the desired concentration.

BAZ2B PHD = biological target: T2, BAZ2B PHD (Homo sapiens, UniProt Q9UIF8); experiment: ITC, H3 peptides titrated into BAZ2B PHD (WT); details: for effect on binding, in words: compared with H3 10-mer WT
T2 construct: The small PHDs (∼6.5 kDa) of both BAZ2A and BAZ2B; made in house
T2 sequence (Q9UIF8 1931-1981 limits assumed): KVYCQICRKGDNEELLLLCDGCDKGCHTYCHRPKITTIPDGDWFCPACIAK
Procedure: as §1

BAZ2B PHD E1944K = biological target: T3, BAZ2B PHD E1944K (Homo sapiens, UniProt Q9UIF8, E1944K); experiment: ITC, H3 10-mer into BAZ2B PHD E1944K mutant; details: ITC 25°C
T3 construct: Mutations were introduced into BAZ2A/B PHD fingers by polymerase chain reaction (PCR) amplification of the original construct; made in house
T3 sequence (Q9UIF8 1931-1981 E1944K limits assumed): T2 sequence (Q9UIF8 1931-1981 limits assumed) with E14K
Procedure: (§2) Mutations were introduced into BAZ2A/B PHD fingers by polymerase chain reaction (PCR) amplification of the original construct using Phusion DNA Polymerase (Thermo Fisher Scientific) and a specific pair of primers for each mutation (Supplementary Table S4). The PCR amplification product was incubated with Dpn I (New England BioLabs) for 1 h at 37°C to digest the parental DNA strands and then used to transform Escherichia coli DH5α cells. Transformed cells were grown on lysogeny broth (LB) agar plates supplemented with 100 µg/ml ampicillin for 16 h at 37°C. Single colonies were picked to inoculate 5 ml of LB plus 100 µg/ml ampicillin and grown for 16 h at 37°C. […]
(§3) All calorimetric experiments were performed on a MicroCal iTC200 microcalorimeter (GE Healthcare) at 25°C in a buffer containing 20 mM HEPES at a pH of 8, 150 mM NaCl and 0.5 mM Tris(2-carboxyethyl) phosphine. […] The data were analyzed using the MicroCal™ software package subtracting the data from an independent titration of peptide into buffer to account for heat of dilution, and then fitted using a single-binding site model. Protein concentration was determined by measuring absorbance at 280 nm using the following extinction coefficients: BAZ2A PHD ε280 = 6990 M^−1 cm^−1 and BAZ2B PHD ε280 = 8480 M^−1 cm^−1. […]

BAZ2A PHD D1688N/E1689Q = biological target: T4, BAZ2A PHD D1688N/E1689Q (Homo sapiens, UniProt Q9UIF9, D1688N/E1689Q); experiment: ITC, H3 10-mer into BAZ2A PHD D1688N/E1689Q double mutant; details: ITC 25°C, triplicate, mean ± s.e.m.; N fixed to 1 in fit; SEM
T4 construct: Mutations were introduced into BAZ2A/B PHD fingers by polymerase chain reaction (PCR) amplification of the original construct; made in house
T4 sequence (Q9UIF9 1676-1726 D1688N/E1689Q limits assumed): T1 sequence (Q9UIF9 1676-1726 limits assumed) with D13N, E14Q
Procedure: as §2, §3

BAZ2A PHD E1689Q = biological target: T5, BAZ2A PHD E1689Q (Homo sapiens, UniProt Q9UIF9, E1689Q); experiment: ITC, H3 10-mer into BAZ2A PHD E1689Q mutant; details: ITC 25°C, triplicate, mean ± s.e.m.; SEM
T5 construct: Mutations were introduced into BAZ2A/B PHD fingers by polymerase chain reaction (PCR) amplification of the original construct; made in house
T5 sequence (Q9UIF9 1676-1726 E1689Q limits assumed): T1 sequence (Q9UIF9 1676-1726 limits assumed) with E14Q
Procedure: as §2, §3

BAZ2A PHD E1689K = biological target: T6, BAZ2A PHD E1689K (Homo sapiens, UniProt Q9UIF9, E1689K); experiment: ITC, H3 10-mer into BAZ2A PHD E1689K mutant; details: ITC 25°C, duplicate, mean ± s.e.m.; SEM
T6 construct: Mutations were introduced into BAZ2A/B PHD fingers by polymerase chain reaction (PCR) amplification of the original construct; made in house
T6 sequence (Q9UIF9 1676-1726 E1689K limits assumed): T1 sequence (Q9UIF9 1676-1726 limits assumed) with E14K
Procedure: as §2, §3

BAZ2B PHD E1944Q = biological target: T7, BAZ2B PHD E1944Q (Homo sapiens, UniProt Q9UIF8, E1944Q); experiment: ITC, H3 10-mer into BAZ2B PHD E1944Q mutant; details: ITC 25°C, triplicate, mean ± s.e.m.; N fixed to 1 in fit; SEM
T7 construct: Mutations were introduced into BAZ2A/B PHD fingers by polymerase chain reaction (PCR) amplification of the original construct; made in house
T7 sequence (Q9UIF8 1931-1981 E1944Q limits assumed): T2 sequence (Q9UIF8 1931-1981 limits assumed) with E14Q
Procedure: as §2, §3

[1] = ITC, 25°C, 20 mM HEPES pH 8, 150 mM NaCl, 0.5 mM TCEP, peptide 1.5–3 mM into protein 80–120 µM, single-site fit, error from fit (Table 2), read-out: KD
[2] = KD, ITC, 25°C, 20 mM HEPES pH 8, 150 mM NaCl, 0.5 mM TCEP, peptide 1.5–3 mM into protein 80–120 µM, single-site fit, error from fit (Table 2)

Question: Which Kd (BAZ2A PHD; [1]) does the source give for C[C@H](N)C(=O)N[C@@H](CCCNC(=N)N)C(=O)N[C@H](C(=O)N[C@@H](CCCCN)C(N)=O)[C@@H](C)O [ARTK] (H-ARTK-NH2) here?
Answer: Its Kd is 100 ± 4 µM.

Question: With C[C@H](N)C(=O)N[C@@H](CCCNC(=N)N)C(=O)N[C@H](C(=O)N[C@@H](CCCCN)C(=O)N[C@@H](CCC(N)=O)C(=O)N[C@@H](C)C(=O)N[C@@H](C)C(=O)N[C@@H](CCCNC(=N)N)C(=O)N[C@@H](CCCCN)C(=O)N[C@@H](CO)C(N)=O)[C@@H](C)O [ARTKQAARKS] as the compound, how does the Kd (BAZ2A PHD; [1]) read?
Answer: The Kd was 55 ± 2 µM.

Question: And the Kd (BAZ2B PHD; [1])?
Answer: Its Kd is 44.6 ± 0.8 µM.

Question: How did the Kd (BAZ2A PHD; [1]) turn out when ARTAATARKS-NH2 [ARTAATARKS] was run?
Answer: Its Kd is 12.1 ± 0.3 µM.

Question: And the Kd (BAZ2B PHD; [1])?
Answer: Its Kd is 2.6 ± 0.1 µM.

Question: Which Kd (BAZ2A PHD; KD, BAZ2A PHD wt, ITC 25°C, triplicate, mean ± s.e.m. (Table 3), SEM) does the source give for C[C@H](N)C(=O)N[C@@H](CCCNC(=N)N)C(=O)N[C@H](C(=O)N[C@@H](CCCCN)C(=O)N[C@@H](CCC(N)=O)C(=O)N[C@H](C(=O)N[C@@H](C)C(=O)N[C@@H](CCCNC(=N)N)C(=O)N[C@@H](CCCCN)C(=O)N[C@@H](CO)C(N)=O)[C@@H](C)O)[C@@H](C)O [ARTKQTARKS] here?
Answer: Its Kd is 48 ± 2 µM.

Question: What about the Kd (BAZ2A PHD; [2]) of the same compound?
Answer: Its Kd is 51 ± 2 µM.

Question: What about the KD (BAZ2B PHD E1944K) of the same compound?
Answer: Its KD is “completely abrogated binding”.

Question: What about the Kd (BAZ2B PHD E1944K) of the same compound?
Answer: Its Kd is greater than 1000 µM.

Question: And the Kd (BAZ2A PHD D1688N/E1689Q)?
Answer: Its Kd is 810 ± 50 µM.

Question: What about the Kd (BAZ2A PHD E1689Q) of the same compound?
Answer: Its Kd is 83 ± 7 µM.

Question: And the Kd (BAZ2A PHD E1689K)?
Answer: Its Kd is 116 ± 6 µM.

Question: And the Kd (BAZ2B PHD E1944Q)?
Answer: The Kd was 660 ± 60 µM.

Question: What about the Kd (BAZ2B PHD; KD, BAZ2B PHD wt, ITC 25°C, triplicate, mean ± s.e.m. (Table 3), SEM) of the same compound?
Answer: Its Kd is 47 ± 2 µM.

Question: What about the Kd (BAZ2B PHD; [2]) of the same compound?
Answer: The Kd was 40 ± 0.5 µM.

Question: Which results are given for AATKQTARKS-NH2 [AATKQTARKS]?
Answer: Kd (BAZ2A PHD; [1]): > 1000 µM; effect on binding, in words (BAZ2A PHD; ITC): abolished binding; Kd (BAZ2B PHD; [1]): > 1000 µM; effect on binding, in words (BAZ2B PHD; ITC): abolished binding

Question: With C[C@H](N)C(=O)N[C@@H](CCCNC(=N)N)C(=O)N[C@H](C(=O)N[C@@H](CCCCN)C(=O)N[C@@H](CCC(N)=O)C(N)=O)[C@@H](C)O [ARTKQ] as the compound, how does the Kd (BAZ2A PHD; [1]) read?
Answer: The Kd was 210 ± 30 µM.

Question: What about the Kd (BAZ2B PHD; [1]) of the same compound?
Answer: The Kd was 190 ± 25 µM.

Question: Which KD (BAZ2A PHD; ITC, 25°C, 20 mM HEPES pH 8, 150 mM NaCl, 0.5 mM TCEP, peptide 1.5–3 mM into protein 80–120 µM, single-site fit, error from fit (Table 2)) does the source give for ARAKQTARKS-NH2 [ARAKQTARKS] here?
Answer: The KD was “No binding”.

Question: And the “effect on binding, in words” value (BAZ2A PHD; ITC)?
Answer: Its value is “abolished binding”.

Question: And the Kd (BAZ2B PHD; [1])?
Answer: The Kd was greater than 5000 µM.

Question: What about the “effect on binding, in words” value (BAZ2B PHD; ITC) of the same compound?
Answer: The value was “abolished binding”.

Question: Which Kd (BAZ2A PHD; [1]) does the source give for C[C@H](N)C(=O)N[C@@H](CCCNC(=N)N)C(=O)N[C@H](C(=O)N[C@@H](C)C(N)=O)[C@@H](C)O [ARTA] (H-ARTA-NH2) here?
Answer: Its Kd is 56 ± 2 µM.

Question: With ARTGGTARKS-NH2 [ARTGGTARKS] as the compound, how does the Kd (BAZ2A PHD; [1]) read?
Answer: The Kd was 143 ± 7 µM.

Question: What about the Kd (BAZ2B PHD; [1]) of the same compound?
Answer: The Kd was 166 ± 8 µM.

Question: What does the source list for C[C@H](N)C(=O)N[C@@H](CCCNC(=N)N)C(=O)N[C@H](C(=O)N[C@@H](C)C(=O)N[C@@H](CCC(N)=O)C(=O)N[C@H](C(=O)N[C@@H](C)C(=O)N[C@@H](CCCNC(=N)N)C(=O)N[C@@H](CCCCN)C(=O)N[C@@H](CO)C(N)=O)[C@@H](C)O)[C@@H](C)O [ARTAQTARKS]?
Answer: Kd (BAZ2A PHD; [1]): 42 ± 2 µM; Kd (BAZ2B PHD; [1]): 8.5 ± 0.2 µM

Question: Which Kd (BAZ2A PHD; [1]) does the source give for C[C@H](N)C(=O)N[C@@H](CCCNC(=N)N)C(=O)N[C@H](C(=O)N[C@@H](CCCCN)C(=O)N[C@@H](C)C(=O)N[C@H](C(=O)N[C@@H](C)C(=O)N[C@@H](CCCNC(=N)N)C(=O)N[C@@H](CCCCN)C(=O)N[C@@H](CO)C(N)=O)[C@@H](C)O)[C@@H](C)O [ARTKATARKS] here?
Answer: Its Kd is 9.3 ± 0.2 µM.

Question: And the Kd (BAZ2B PHD; [1])?
Answer: The Kd was 7 ± 0.2 µM.

Reference: article PMC5415848, “Structural basis of molecular recognition of helical histone H3 tail by PHD finger domains” (Biochemical Journal, 2017)
